Where “and” joins values, the source holds several entries; their conditions need not be identical. Equal entries are not always repeated.
Columns and labels:
[1] = tested on: granulation tissue formation caused by implantation of cotton pellets; assay: Granuloma formation test (local cotton pellet granuloma assay); assay type: in vivo, rat; details: Table III
Procedure: The test compound was dissolved in acetone and aliquots of varying concentrations were injected into cotton pellets. The pellets were dried and then one pellet was implanted beneath the skin of each test rat. Six days later, the animals were sacrificed and the granulation tissue (granuloma) which formed in and around the implanted pellet was removed, dried and weighed. In addition, the thymi and adrenals were removed and weighed.

[2] = tested on: thymus weight in rats; assay: Thymus involution test (topically administered steroids, thymus weight in rats); details: 0.75 μmol topical on ear, after 24 hours
Procedure: The test animals were female Sprague/Dawley rats weighing approximately 40-45 grams each. One side of each ear of each rat was treated with a total of 25 microliters of a solution (ethanol/isopropyl myristate or acetone/isopropyl myristate, 90/10) containing the amount of test compound indicated below. Animals which were treated identically, save for omission of the test compound, served as controls. After 24 hours, all rats were sacrificed and weighed, and their thymi were removed and weighed.
The lower the weight of the thymi, the greater the systemic activity.

[3] = tested on: ear swelling induced by croton oil; assay: Ear edema test; assay type: in vivo, rat; details: for Ear Weight, % Increase / Ear Weight, % Inhibition / Ear Weight, Inflamed Ear / Ear Weight, Untreated Ear: 6 hr; for Relative organ weight Adrenals / Relative organ weight Thymus: 48 hours
Procedure: The test animals were Sprague/Dawley rats weighing approximately 150 grams each. In treatment groups, selected amounts of the test compound were dissolved in acetone containing 5% croton oil and 50 microliters of the solution were applied to the inner surface of the right ear of the rats. A control group was identically treated with vehicle only, i.e. 5% croton oil in acetone. Six hours after croton oil challenge, a constant region of each ear was removed by dissection under anesthesia. Then, 48 hours after steroid treatment, the animals were sacrificed and the thymi and adrenals were removed and weighed. The test results showing the inhibitory effect of topically applied steroids on the ear swelling induced by croton oil are summarized in Table II below.

[4] = tested on: blanching in humans; assay: McKenzie-type human blanching studies; assay type: in vivo; details: forearm, 6 hours occlusion
Procedure: McKenzie-type human blanching studies were undertaken to study the blanching effects of a representative test compound of the invention, chloromethyl 17α-ethoxycarbonyloxy-11β-hydroxyandrost-4-en-3-one-17β-carboxylate.
The test compound was dissolved in ethanol/isopropyl myristate (90/10 or 70/30) at 0.03, 0.01, 0.003, 0.001 and 0.0003 M concentrations. 50 Microliter aliquots of each solution were applied to separate gauze portions of a bandage of the type commonly used for allergy testing and the bandage was applied to the forearm. After 6 hours of occlusion, the bandage was removed.

SMILES: CCOC(=O)O[C@]1(C(=O)OCSC)CCC2C3CCC4=CC(=O)CCC4(C)C3C(O)CC21C (stereo partly shown)
- melting point: 133 to 136 °C and 137.5 to 138 °C

SMILES: CC(C)OC(=O)OC1(C(=O)OCCl)[C@H](C)C[C@H]2[C@@H]3CCC4=CC(=O)C=C[C@]4(C)[C@@]3(F)C(=O)C[C@@]21C (stereo partly shown)
- melting point: 138 to 140 °C

SMILES: COC(=O)O[C@]1(C(=O)OCCl)CCC2C3CCC4=CC(=O)CCC4(C)C3C(O)CC21C (stereo partly drawn) [chloromethyl 11β-hydroxy-17α-methoxycarbonyloxyandrost-4-en-3-one-17β-carboxylate]
- Granulation tissue Dry wt. ([1]; 1 mg/pellet): 24.6 ± 2.6 mg/100 g body wt.
- Granulation tissue Inhibition ([1]; 1 mg/pellet): 43.7%
- melting point: 171 to 173 °C

SMILES: CCOC(=O)O[C@]1(C(=O)OCCl)CC[C@H]2[C@@H]3CCC4=CC(=O)CC[C@]4(C)[C@H]3[C@@H](O)C[C@@]21C [chloromethyl 17α-ethoxycarbonyloxy-11β-hydroxyandrost-4-en-3-one-17β-carboxylate]
- Total Weight per Rat, % Gain ± SD [2]: 33 ± 6%
- Total Weight per Rat, Final [2]: 60.60 g
- mg Thymus ± SD / 100 g Rat [2]: 309 ± 24 mg/100 g
- Ear Weight, % Increase ([3]; 0.3 mg/kg topical): 23.3 ± 7.2 %
- Ear Weight, % Inhibition ([3]; 0.3 mg/kg topical): 62.1%
- Ear Weight, Inflamed Ear ([3]; 0.3 mg/kg topical): 62.2 ± 3.0 mg
- Ear Weight, Untreated Ear ([3]; 0.3 mg/kg topical): 50.8 ± 2.4 mg
- Relative organ weight Adrenals ([3]; 0.3 mg/kg topical): 26.0 ± 2.5 mg/100 g body wt.
- Relative organ weight Thymus ([3]; 0.3 mg/kg topical): 290 ± 25 mg/100 g body wt.
- Ear Weight, % Increase ([3]; 1 mg/kg topical): 14.0 ± 6.5 %
- Ear Weight, % Inhibition ([3]; 1 mg/kg topical): 77.2%
- Ear Weight, Inflamed Ear ([3]; 1 mg/kg topical): 55.0 ± 2.6 mg
- Ear Weight, Untreated Ear ([3]; 1 mg/kg topical): 48.4 ± 1.0 mg
- Relative organ weight Adrenals ([3]; 1 mg/kg topical): 18.7 ± 1.4 mg/100 g body wt.
- Relative organ weight Thymus ([3]; 1 mg/kg topical): 293 ± 21 mg/100 g body wt.
- Ear Weight, % Increase ([3]; 3 mg/kg topical): 3.7 ± 8.1 %
- Ear Weight, % Inhibition ([3]; 3 mg/kg topical): 94.0%
- Ear Weight, Inflamed Ear ([3]; 3 mg/kg topical): 52.6 ± 1.8 mg
- Ear Weight, Untreated Ear ([3]; 3 mg/kg topical): 51.6 ± 3.2 mg
- Relative organ weight Adrenals ([3]; 3 mg/kg topical): 20.3 ± 0.8 mg/100 g body wt.
- Relative organ weight Thymus ([3]; 3 mg/kg topical): 288 ± 21 mg/100 g body wt.
- swelling of the ear caused by croton oil (in words) ([3]; topical, Table II): substantially inhibited the swelling
- thymus weight as compared to the control (in words) ([3]; topical, Table II): did not significantly decrease the thymus weight as compared to the control
- Body wt. gain ([1]; 0.1 mg/pellet): 36.0 ± 2.8 g
- Granulation tissue Dry wt. ([1]; 0.1 mg/pellet): 34.7 ± 4.3 mg/100 g body wt.
- Granulation tissue Inhibition ([1]; 0.1 mg/pellet): 20.6%
- Relative organ weight Adrenals ([1]; 0.1 mg/pellet): 22.9 ± 2.6 mg/100 g body wt.
- Relative organ weight Adrenals (Decrease %) ([1]; 0.1 mg/pellet): (3.4) %
- Relative organ weight Thymus ([1]; 0.1 mg/pellet): 282 ± 13 mg/100 g body wt.
- Relative organ weight Thymus (Decrease %) ([1]; 0.1 mg/pellet): (13.5) %
- Body wt. gain ([1]; 0.3 mg/pellet): 33.0 ± 1.3 g
- Granulation tissue Dry wt. ([1]; 0.3 mg/pellet): 25.3 ± 2.3 mg/100 g body wt.
- Granulation tissue Inhibition ([1]; 0.3 mg/pellet): 42.1%
- Relative organ weight Adrenals ([1]; 0.3 mg/pellet): 22.8 ± 1.0 mg/100 g body wt.
- Relative organ weight Adrenals (Decrease %) ([1]; 0.3 mg/pellet): (3.8) %
- Relative organ weight Thymus ([1]; 0.3 mg/pellet): 298 ± 16 mg/100 g body wt.
- Relative organ weight Thymus (Decrease %) ([1]; 0.3 mg/pellet): (8.6) %
- Body wt. gain ([1]; 1 mg/pellet): 32.8 ± 0.9 g
- Granulation tissue Dry wt. ([1]; 1 mg/pellet): 14.0 ± 1.8 mg/100 g body wt.
- Granulation tissue Inhibition ([1]; 1 mg/pellet): 68.0%
- Relative organ weight Adrenals ([1]; 1 mg/pellet): 21.8 ± 1.3 mg/100 g body wt.
- Relative organ weight Adrenals (Decrease %) ([1]; 1 mg/pellet): (8.0) %
- Relative organ weight Thymus ([1]; 1 mg/pellet): 304 ± 10 mg/100 g body wt.
- Relative organ weight Thymus (Decrease %) ([1]; 1 mg/pellet): (6.7) %
- Body wt. gain ([1]; 3 mg/pellet): 30.7 ± 1.5 g
- Granulation tissue Dry wt. ([1]; 3 mg/pellet): 18.7 ± 2.3 mg/100 g body wt.
- Granulation tissue Inhibition ([1]; 3 mg/pellet): 57.2%
- Relative organ weight Adrenals ([1]; 3 mg/pellet): 19.6 ± 1.1 mg/100 g body wt.
- Relative organ weight Adrenals (Decrease %) ([1]; 3 mg/pellet): (17.3) %
- Relative organ weight Thymus ([1]; 3 mg/pellet): 278 ± 21 mg/100 g body wt.
- Relative organ weight Thymus (Decrease %) ([1]; 3 mg/pellet): (14.7) %
- blanching ([4]; 0.03 to 0.0003 M, 50 microliter, read 1 to 5 hours after removal): blanching was observed even at the lowest concentrations
- concentration causing approximately the same degree of blanching ([4]; direct comparison): ~0.001 M

— patent US6610675B1 (priority 1980, dated 2003)
